The values below come from patent US12303473B1 (priority 2023, dated 2025).

For data set [1] the following is noted: APLENZIN 348 mg once-daily, 10-day dosing; cited from earlier work.
The subject of the next data set is adult patients with TRD. To be noted: for depression rating based on mean PHQ-9 depression scores: "severe" at baseline, HBr after 2 weeks; for side effect: insomnia / side effect: anxiety / side effect: gastrointestinal upset: in vivo. The source says:
In the regular course of Applicants' general outpatient psychiatry practice, Applicants see many patients who suffer from Major Depressive Disorder (MDD) and may not have responded to two or more oral antidepressant medications. Applicants routinely administer the brief and commonly used Patient Health Questionnaire-9 (PHQ-9) scale before starting a new treatment, two weeks after starting treatment to measure initial response, and periodically thereafter.
Once-daily, XL bupropion HCl received FDA approval for the treatment of MDD in 2003 and for Seasonal Affective Disorder (SAD) in 2006.
The following study protocol was approved by the WCG-IRB institutional ethics committee and conducted in accordance with principles set forth in the Helsinki Declaration. […] The PHQ-9 is a reliable and valid clinical and research tool that measures functionality and depression severity, whereby scores of 5, 10, 15, and 20 correspond to mild, moderate, moderately severe, and severe depression and a 5-point change is considered clinically meaningful. Statistical analysis was performed using a within-subject, 2-tailed t-test with a significance level of p<0.05.

Data set [2] concerns patients having Major Depressive Disorder who also suffer from Treatment Resistant Depression. The data set can be described thus: Example 2: phase III double-blind active control Treatment Resistant Major Depressive Disorder study (MADRS), sequential HCl then HBr. The data set is classed as in vivo, human. The settings on record: N=50. The method, then: A phase III double-blind study is conducted on a subset of patients having Major Depressive Disorder who also suffer from Treatment Resistant Depression. Exclusion criteria for this study are any patients suffering from seizures, known hypersensitivity to bupropion, eating disorders, schizophrenia or bipolar disorder. Inclusion criteria for this study are adult patients ages 18 through 64 who have taken two oral antidepressants of adequate dose and duration in the current episode of Major Depressive Disorder. The study includes a total of fifty patients (N=50). Initially, all patients are given a two-week washout from a previous oral antidepressant or are not currently taking an oral antidepressant. The patients are administered once daily bupropion HCl XL 150 mg, which is flexibly dosed to 300 mg by day 4 and 450 mg by day 11, to the extent required for treatment response and/or as tolerated. The treatment is continued for a total of six weeks. After six weeks, there is a five-day bupropion HCl XL washout. Next, the patients are administered once daily bupropion HBr XL 174 mg, which is flexibly dosed to 348 mg by day 4 and 522 mg by day 11, to the extent required for treatment response and/or as tolerated. This part of the study is continued for a total of six weeks. Measures are assessed based on weekly changes on the Montgomery Asberg Depression Rating Scale (MADRS) from baseline on bupropion HCl compared to bupropion HBr. Also, side effects leading to discontinuation on bupropion HCl compared to bupropion HBr are considered. The primary endpoint of the study is significant change in MADRS by week 6 on bupropion HBr compared to bupropion HCl. A secondary endpoint is statistically significant change in MADRS by week 2 on bupropion HBr compared to bupropion HCl.

Data set [3] has the same test system. The data set can be described thus: Example 3: study similar to Example 2 with two arms of 25 patients. The format is in vivo, human. To be noted: 25 patients per arm. The protocol:
A similar study to that of Example 2 is also conducted, except that the 50 patients are broken into two arms—one arm of 25 patients taking bupropion HCl XL and the other arm of 25 patients taking bupropion HBr XL.

SMILES strings stand for the structures. Like-named read-outs stand apart in the source and are kept apart here.

In the case of `Br.CC(NC(C)(C)C)C(=O)c1cccc(Cl)c1` (centres unmarked) [XL bupropion HBr, bupropion hydrobromide], in data set [1], the “peak plasma concentration and area under the curve vs bupropion HCl extended-release 300 mg (bioequivalence)” value is listed as “equivalent”. In addition, the “depression rating based on mean PHQ-9 depression scores” value with adult patients with TRD (30 adult TRD patients) was “mild (Scores of 5-9 indicate mild depression)”. In the data set with adult patients with TRD (30 adult TRD patients, after 2 weeks on mean dose 348 mg/day (range 174-522 mg/day) after direct switch from XL bupropion HCl, t=-8.63, p<0.00001 vs HCl), the “mean PHQ-9 score on XL bupropion HBr” value amounted to 6.4±5.0. In addition, in the data set with adult patients with TRD (all patients in the study of Example 1, each question rated 0 to 3), the “change in PHQ-9 questions (1), (3), (4), (5) and (7) on XL bupropion HBr compared to XL bupropion HCl” value is reported as “improving by at least one point”. Moreover, in the data set on adult patients with TRD (both, human), the “side effect: insomnia” value was 3 patients. Moreover, in the data set on adult patients with TRD, the “side effect: anxiety” value is listed as “resolved” and the “side effect: gastrointestinal upset” value is recorded as “resolved”. For the same molecule, the “patient preference over the combination of bupropion HCl plus dextromethorphan” value in the data set with adult patients with TRD (subgroup of five patients who had previously failed the combination, due to improved antidepressant efficacy) was “All five patients in this subgroup preferred once-daily XL bupropion HBr”. Further, in data set [2], the “side effects leading to discontinuation compared to bupropion HCl” value is “fewer side effects leading to discontinuation”. Further, in data set [2] (174-522 mg once daily, six weeks), the “efficacy in TRD (MADRS change) compared to bupropion HCl” value is “more effective”. For the same molecule, the “speed of effect compared to bupropion HCl” value in data set [2] (MADRS by week 2) is given as “works faster”. For the same molecule, in data set [3], the “results of two-arm study compared to bupropion HCl XL” value is on record as “same as in Example 2”.
With `CC(NC(C)(C)C)C(=O)c1cccc(Cl)c1.Cl` (racemic) [XL bupropion HCl, (±)-1-(3-chlorophenyl)-2-[(1,1-dimethylethyl)amino]-1-propanone hydrochloride], the “depression rating based on mean PHQ-9 depression scores” value in the data set on adult patients with TRD (30 adult TRD patients) was “moderately severe (Scores of 15-19 indicate moderately severe depression)”. The “mean PHQ-9 score on XL bupropion HCl” value in the data set on adult patients with TRD (30 adult TRD patients, mean dose 300 mg/day (range 150-450 mg/day), mean duration 88.8 weeks, PHQ-9 range 0-27, baseline 20.9±4.3) turned out to be 15.3±5.3. In the data set on adult patients with TRD (both, human), the “side effect: anxiety” value is 19 patients, the “side effect: gastrointestinal upset” value worked out at 2 patients and the “side effect: insomnia” value is reported as 21 patients.
